Test results taken from US12302841B2, “Soybean variety comprising high content of epicatechin” (AMOREPACIFIC CORPORATION, priority 2020, dated 2025).

How the values were obtained:
collagenase (MMP-1) = assay: Collagenase (MMP-1) expression inhibition test in human fibroblasts; format: cell-based; conditions: 10 μg/mL in serum-free DMEM, 24 hours, relative to untreated group
Procedure: In order to investigate the antiaging activity of the extract of the Aritaunkong bred in Example 1, the collagenase (MMP-1) expression-inhibiting effect of each of the soybean extracts prepared in Preparation Example was assessed. Specifically, after placing human fibroblasts (Cascade Biologics, Portland, OR, USA) on a 96-well microtiter plate containing DMEM (Dulbecco's modified Eagle's medium) supplemented with 2.5 wt % of fetal bovine serum at 5,000 cells/well, the cells were cultured until ˜90% confluency. Then, after culturing the cells in serum-free DMEM for 24 hours and treating with each of the three soybean extracts of Preparation Example or EGCG (Sigma-Aldrich) as a positive control group, dissolved in serum-free DMEM to 10 μg/mL, for 24 hours, the cell culture was collected. Subsequently, the degree of collagenase production in the collected cell culture was measured using a collagenase measurement kit (Amersham Pharmacia, USA). First, after placing the collected cell culture on a 96-well plate on which a primary collagenase antibody is coated uniformly, antigen-antibody reaction was conducted for 3 hours in a constant-temperature bath (36° C.). […] Collagenase expression inhibition (%)=(1−absorbance of substance-treated cell group/absorbance of control group)×100 [Equation 1]

[1] = Antioxidant activity test through DPPH reduction (DPPH radical-scavenging ability); format: biochemical; conditions: 100 μM DPPH in ethanol, 37° C. for 30 minutes, absorbance at 540 nm; sample concentration at which absorbance decreased by 50%
Procedure: In order to investigate the antioxidant activity of the extract of the Aritaunkong bred in Example 1, the DPPH (1,1-diphenyl-2-picrylhydrazyl) oxidation-inhibiting effect of each soybean extract prepared in Preparation Example was compared by monitoring the change in absorbance occurring as a result of reduction of DPPH. Specifically, after preparing 190 μL of a 100 μM (in ethanol) DPPH solution and the soybean extract of Preparation Example and the synthetic antioxidant Trolox (positive control group) to a concentration of 10,000 ppm, they were diluted to final concentrations of 500 ppm, 250 ppm, 125 ppm, 62.5 ppm, 31.25 ppm and 15.63 ppm. After preparing […] reaction solutions by mixing them, absorbance was measured at 540 nm after incubation at 37° C. for 30 minutes. The IC50 indicates the sample concentration when the absorbance was decreased by 50% due to the addition of the sample.

SMILES | Collagenase expression inhibition (%) (collagenase (MMP-1)) | DPPH radical-scavenging ability (IC50) [1] [ppm]
O=C(O[C@@H]1Cc2c(O)cc(O)cc2O[C@@H]1c1cc(O)c(O)c(O)c1)c1cc(O)c(O)c(O)c1 [EGCG] | 60.8 | –
Cc1c(C)c2c(c(C)c1O)CCC(C)(C(=O)O)O2 (centres unmarked) [Trolox] | – | 53.2
